Results reported in patent publication US20240059655A1, “HETEROCYCLIC G-PROTEIN-COUPLED RECEPTOR 52 (GPR52) AGONISTS” (Board of Regents, The University of Texas System, priority 2020, published 2024).
“Also recorded” adds a separate entry of the source.

Assays:
[1] = target: human GPR52 (Homo sapiens (Human), UniProt Q9Y2T5); assay: Glosensor cAMP assay in HEK293 cells transiently expressing human GPR52; type: cell-based; settings: relative to compound 4 as 100% and 0.5% DMSO as 0%, mean ± SEM, "—" not detected
human GPR52, sequence (Q9Y2T5 whole entry): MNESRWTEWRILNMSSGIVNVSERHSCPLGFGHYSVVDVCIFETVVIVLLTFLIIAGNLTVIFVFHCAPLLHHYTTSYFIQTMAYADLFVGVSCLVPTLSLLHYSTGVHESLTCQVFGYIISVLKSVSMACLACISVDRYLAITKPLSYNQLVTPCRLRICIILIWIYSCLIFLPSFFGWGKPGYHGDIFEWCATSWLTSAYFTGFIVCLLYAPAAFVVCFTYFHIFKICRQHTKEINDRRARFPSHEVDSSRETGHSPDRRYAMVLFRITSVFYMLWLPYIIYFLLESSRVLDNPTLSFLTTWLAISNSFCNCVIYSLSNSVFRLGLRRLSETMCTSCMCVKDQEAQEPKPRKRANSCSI

[2] = system: HEK293 cells lacking GPR52; assay: cAMP Glosensor control in HEK293 cells lacking GPR52 (empty vector); settings: HEK293 cells with empty vector, 0.1 nM-10 μM
[3] = system: C57/BL6 mice; assay: Locomotor activity and amphetamine-induced hyperlocomotion in mice; settings: P<0.05 vs vehicle; for AMPH-induced horizontal activity, first 30 min after AMPH: AMPH 3 mg/kg IP
[4] = Brain permeability in rats; type: in vivo; settings: male, Sprague-Dawley, brain/plasma, rat, IV 10 mg/kg, read-out: Brain/Plasma Ratio
Method: In Vivo PK and Brain Permeability Studies. Male Sprague-Dawley rats (n=3 per treatment group; […] Rats were randomly assigned to treatment groups. […] The rat was restrained manually at the designated time points (0.08, 0.25, 0.5, 1.0, 2.0, 4.0, 8.0, and 24 h post-dosing for IV; 0.25, 0.5, 1.0, 2.0, 4.0, 8.0, and 24 h post-dosing for PO). 100 μL of blood (yielding ˜50 μL of plasma) samples are taken from the animal's jugular vein and placed into micro K2EDTA tubes. Blood samples were placed on ice and centrifuged at 8000 rpm for 5 min at 4° C. to generate plasma sample within 0.5 h of collection. Brain samples were collected at 0.25 and 1 h post-dosing. All samples were stored at −20° C. The concentration of 12c in each sample was analyzed by Sundia MediTech Co., Ltd. The study and the related standard operating procedures were reviewed and approved by the Sundia Institutional Animal Care and Use Committee. The Sundia animal facility is approved with yearly inspection by the Shanghai Laboratory Animal Management Committee. All treatment assignments were blinded to investigators who performed PK assays and end point statistical analyses.

[5] = target: hERG potassium channel (Homo sapiens (Human), UniProt Q12809); assay: NIMH-PDSP broad-panel counter screening (binding)
hERG potassium channel, sequence (Q12809 whole entry): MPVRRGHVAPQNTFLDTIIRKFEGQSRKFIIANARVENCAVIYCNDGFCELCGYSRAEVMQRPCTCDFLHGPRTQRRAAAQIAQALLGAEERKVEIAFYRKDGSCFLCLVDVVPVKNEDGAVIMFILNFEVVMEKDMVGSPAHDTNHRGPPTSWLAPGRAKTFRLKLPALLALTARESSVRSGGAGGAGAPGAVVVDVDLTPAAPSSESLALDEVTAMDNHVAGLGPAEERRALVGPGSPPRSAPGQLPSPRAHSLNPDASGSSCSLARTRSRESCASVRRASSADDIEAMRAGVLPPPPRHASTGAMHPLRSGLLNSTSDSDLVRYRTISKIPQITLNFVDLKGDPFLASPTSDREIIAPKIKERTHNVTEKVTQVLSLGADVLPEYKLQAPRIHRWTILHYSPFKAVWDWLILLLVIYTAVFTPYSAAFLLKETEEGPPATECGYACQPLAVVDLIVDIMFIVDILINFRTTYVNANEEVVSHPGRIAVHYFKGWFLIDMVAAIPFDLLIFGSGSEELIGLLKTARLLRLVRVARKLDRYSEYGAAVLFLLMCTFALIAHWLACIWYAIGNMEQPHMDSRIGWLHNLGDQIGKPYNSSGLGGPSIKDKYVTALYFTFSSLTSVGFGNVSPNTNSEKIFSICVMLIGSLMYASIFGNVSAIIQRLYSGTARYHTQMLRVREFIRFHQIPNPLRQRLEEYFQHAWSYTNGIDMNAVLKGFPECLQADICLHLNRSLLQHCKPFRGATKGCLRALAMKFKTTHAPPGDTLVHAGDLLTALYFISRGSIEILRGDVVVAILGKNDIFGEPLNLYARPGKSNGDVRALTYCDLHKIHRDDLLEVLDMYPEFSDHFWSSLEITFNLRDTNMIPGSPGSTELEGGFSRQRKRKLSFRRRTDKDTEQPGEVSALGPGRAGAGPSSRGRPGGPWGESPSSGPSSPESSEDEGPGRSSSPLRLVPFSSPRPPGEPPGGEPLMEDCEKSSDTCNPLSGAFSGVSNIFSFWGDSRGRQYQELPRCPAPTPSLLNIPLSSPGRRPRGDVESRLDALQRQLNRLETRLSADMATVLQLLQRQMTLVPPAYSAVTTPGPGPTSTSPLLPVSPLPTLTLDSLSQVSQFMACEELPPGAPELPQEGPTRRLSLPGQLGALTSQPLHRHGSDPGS

[6] = system: GABAA; assay: NIMH-PDSP broad-panel counter screening (binding); settings: mean percent inhibition of binding
[7] = target: 5-HT2C (Homo sapiens (Human), UniProt P28335); assay: NIMH-PDSP broad-panel counter screening (binding)
5-HT2C, sequence (P28335 33-458, species assumed): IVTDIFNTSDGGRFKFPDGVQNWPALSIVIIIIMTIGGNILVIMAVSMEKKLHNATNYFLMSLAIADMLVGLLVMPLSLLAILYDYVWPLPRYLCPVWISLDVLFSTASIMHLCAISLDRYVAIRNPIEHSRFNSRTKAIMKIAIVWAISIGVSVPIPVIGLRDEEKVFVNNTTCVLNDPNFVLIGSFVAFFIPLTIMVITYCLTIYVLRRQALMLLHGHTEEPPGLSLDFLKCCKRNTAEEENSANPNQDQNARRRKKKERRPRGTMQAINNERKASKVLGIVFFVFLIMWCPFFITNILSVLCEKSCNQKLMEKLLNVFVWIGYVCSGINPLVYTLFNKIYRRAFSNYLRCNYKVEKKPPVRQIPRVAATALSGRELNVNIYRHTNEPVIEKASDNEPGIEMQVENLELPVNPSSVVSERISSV

[8] = In vivo PK in rats; settings: rat; for AUC(0-inf): mean ± SEM
Method: In Vivo PK and Brain Permeability Studies. […] 100 μL of blood (yielding ˜50 μL of plasma) samples are taken from the animal's jugular vein and placed into micro K2EDTA tubes. Blood samples were placed on ice and centrifuged at 8000 rpm for 5 min at 4° C. to generate plasma sample within 0.5 h of collection. Brain samples were collected at 0.25 and 1 h post-dosing. All samples were stored at −20° C. […] The Sundia animal facility is approved with yearly inspection by the Shanghai Laboratory Animal Management Committee. All treatment assignments were blinded to investigators who performed PK assays and end point statistical analyses. […] The peak concentration (Cmax) was directly obtained by visual inspection of the plasma concentration-time profile. The elimination rate constant (λ) was obtained by the least-squares fitted terminal log-linear portion of the slope of the plasma concentration-time profile. […] The area under the plasma concentration-time curve from 0 to time t (AUC0-t) was evaluated using the linear trapezoidal rule and further extrapolated to infinity (AUC0-∞) according to the following equation: AUC0-∞=AUC0-t+Clast/λ. The pharmacokinetic parameters were presented as mean±SEM.

[9] = male, Sprague-Dawley, plasma, IV 10 mg/kg
[10] = male, Sprague-Dawley, plasma, PO 20 mg/kg

O=C(NCCO)c1cccc2c1CCN2c1cc(Cc2cc(F)cc(C(F)(F)F)c2)ncn1 [Compound 12c, 1-(6-(3-Fluoro-5-(trifluoromethyl)benzyl)pyrimidin-4-yl)-N-(2-hydroxyethyl)indoline-4-carboxamide]
Emax ([1]; HEK293, cAMP assay, read-out: Emax (%)): 136% | Emax (%) ([1]; cAMP assay): 134% | cAMP increase in cells lacking GPR52 [2]: no increase in cAMP; also recorded: did not increase cAMP | AMPH-induced horizontal activity, first 30 min after AMPH ([3]; 3 mg/kg IP): suppressed AMPH-induced horizontal activity | horizontal activity/30 min after compound injection ([3]; 3 mg/kg IP): suppressed horizontal activity | AMPH-induced horizontal activity, first 30 min after AMPH ([3]; 10 mg/kg IP): suppressed AMPH-induced horizontal activity | horizontal activity/30 min after compound injection ([3]; 10 mg/kg IP): suppressed horizontal activity | Kp at […] ([4]; 0.25 h): 0.28 | Kp at 1 h ([4]; 1 h): 0.39 | hERG potassium channel binding activity ([5]; 10 μM): did not show any | % inhibition (10 μM) ([5]; hERG, mean percent inhibition of binding): 11.04% | % inhibition (10 μM) [6]: 5.98% | Ki [7]: > 10 µM | Cmax [8, 9]: 6730 ng/mL | clearance [8, 9]: 18.3 mL/min/kg | AUC(0-inf) [8, 9]: 9030 ng·h/mL | Vd ([8]; male, Sprague-Dawley, plasma, IV 10 mg/kg, read-out: Vss): 1.5 L/kg | Cmax [8, 10]: 3410 ng/mL | AUC(0-inf) [8, 10]: 13700 ng·h/mL | bioavailability ([8]; male, Sprague-Dawley, plasma, oral, 20 mg/kg): 76% | CL ([8]; IV 10 mg/kg): 18.3 ± 1.7 mL/min/kg | CL ([8]; PO 20 mg/kg): 25 ± 5 mL/min/kg | Vss ([8]; PO 20 mg/kg): 5.5 ± 1.16 L/kg | F (%) ([8]; absolute oral bioavailability, PO 20 mg/kg vs IV 10 mg/kg): 76 ± 15%
